For one data set, the system named is 92.1. In words: PAC-1 single agent IC50 in uveal melanoma cell line, 72-hour incubation. The data set is classed as cell-based. The note with it: 92.1, GNAQ Mutant Q209L, error s.e.m. The source says: (§1) UM cell lines express procaspase-3 (FIG. 1), and PAC-1 has activity as a single agent in a panel of UM cell lines (Table D). [table]
Another data set concerns MEL202. The data set is described as above. Format: cell-based. The note with it: MEL202, GNAQ Mutant Q209L, R210K, error s.e.m.
Excerpt: as §1

A further data set concerns MEL270. Described as above. The note with it: MEL270, GNAQ Mutant Q209P, error s.e.m. Format: cell-based.
Excerpt: as §1

Another data set deals with MEL285. The data set is described as above. Format: cell-based. The note with it: MEL285, GNAQ/11 WT, error s.e.m.
Excerpt: as §1

Another data set relates to MEL290. Described as above. The data set is classed as cell-based. The conditions noted are these: MEL290, GNAQ/11 WT, error s.e.m.
Excerpt: as §1

The subject of a further data set is OMM1. The description is as above. The data set is classed as cell-based. The conditions noted are these: OMM-1, OMM1, GNA11 Mutant Q209L, error s.e.m.
Excerpt: as §1

The test system of the next data set is OMM2.5. The data set is described as above. The data set is classed as cell-based. The note with it: OMM2.5, GNAQ Mutant Q209P, error s.e.m.
Excerpt: as §1

A further data set concerns UM cell line MEL270. In words: Screen of PAC-1 in combination with kinase inhibitors, percent cell death. Format: cell-based. The conditions noted are these: MEL270, 72-hour incubation, single agents and combination at the same concentrations (FIG. 2). From the text: FIG. 2. […] These three types of fusion proteins are key driver alterations in multiple cancer types.

The nature of data set [1]: PAC-1 clinical study in human patients, safety. The data set is classed as in vivo. Here is the method:
PAC-1 has been dosed in 34 human patients through 7 dose levels of PAC-1 (range: 75-750 mg). Two patients progressed during the first cycle of PAC-1 therapy. Thirty-two patients received PAC-1 for at least 2 dosing cycles (a cycle is 21 days of daily dosing followed by 7 days of no drug). As a result of stable disease responses, six patients received PAC-1 for 4 cycles, three patients received PAC-1 for 6 cycles and two patients received PAC-1 for 10 cycles.

Data set [2] in a line: GLP dog PK/preclinical PAC-1 toxicity studies. The data set is classed as in vivo.
The conditions of data set [3]: cited from earlier work.
For data set [4], the system named is ROS1-rearranged lung cancers. The note with it: cited from earlier work.

Each structure is given as a SMILES string.

Turning to `C=CCc1cccc(/C=N/NC(=O)CN2CCN(Cc3ccccc3)CC2)c1O` [PAC-1], the IC50 in the data set on 92.1 was 3.6 ± 0.7 µM; with MEL202, 10.3 ± 0.2 µM; in the data set with MEL270, 9.8 ± 0.6 µM; with MEL285, 7.4 ± 2.6 µM; with MEL290, 11.7 ± 1.2 µM; with OMM1 it was 4 ± 0.8 µM. In addition, the IC50 in the data set with OMM2.5 was 9.5 ± 0.5 µM. In addition, the Percent cell death in the data set on UM cell line MEL270 was about 16%. Moreover, the “serious adverse events (SAEs) associated with PAC-1 administration” value in data set [1] (34 human patients, 7 dose levels, 75-750 mg) is recorded as “No serious adverse events”. Moreover, the “neurotoxicity associated with PAC-1 dosing” value in data set [1] (neurological and neurocognitive assessments through dose level 7 (750 mg)) is listed as “no conclusive signs of neurotoxicity”. Besides, the Brain tissue findings entry in [2] is reported as “brain tissue changes observed”.

Regarding `CN1CCN(c2ccc(C(=O)Nc3n[nH]c4ccc(Cc5cc(F)cc(F)c5)cc34)c(NC3CCOCC3)c2)CC1` [entrectinib], in the data set on UM cell line MEL270, the Percent cell death is on record as about 16%. Moreover, in data set [3] (n=27/119), the “treatment-related adverse events of any grade: myalgias” value was 23%. For the same compound, the “treatment-related adverse events of any grade: nausea” value in data set [3] (n=33/119) was 28%. The “treatment-related adverse events of any grade: paresthesias” value in data set [3] (n=34/119) is listed as 29%. In addition, in [3] (n=50/119), the “treatment-related adverse events of any grade: dysgeusia” value is on record as 42%. The “treatment-related adverse events of any grade: fatigue/asthenia” value in data set [3] (n=55/119) was 46%. In [4], the “Disease control and progression-free survival” value was “durable disease control and prolonged progression-free survival”.
